Measurements: patent publication EP0093620A1, “Fungicidal N-phenylcarbamates” (priority 1982, dated 1983)

What was measured:
[1] = system: drug-resistant strain of Cercospora beticola; conditions: for pest or weed control at 200 ppm: Cercospora beticola, in Beta vulgaris, topical, 240 h, read-out: Prevention value when inoculated with drug-resistant strain; for Prevention value when inoculated with drug-resistant strain: 200 ppm active ingredient, sugarbeet seedlings, spray, 10 days
Description: (§1) The leaves examined were measured for a percentage of infected area and classified into the corresponding disease indices, 0, 0.5, 1, 2, 4:
(§2) The disease severity was calculated according to the following equation: [formula]
(§3) The prevention value was calculated according to the following equation: [formula]
(§4) Preventive effect on cercospora leaf spot of sugarbeet (Cercospora beticola):-A flower pot of 90 ml volume was filled with sandy soil, and seeds of sugarbeet (var: Detroit dark red) were sowed therein. Cultivation was carried out in a greenhouse for 20 days. Onto the resulting seedlings, the test compound formulated in emulsifiable concentrate or wettable powder and diluted with water was sprayed at a rate of 10 ml per pot. Then, the seedlings were inoculated with a spore suspension of the drug-resistant or drug-sensitive strain of Cercospora beticola by spraying. The pot was covered with a polyvinyl chloride sheet to make a condition of high humidity, and cultivation was continued in the greenhouse for 10 days.

[2] = system: drug-resistant strain of Venturia nashicola; experiment: Preventive effect on scab of pear, drug-resistant strain; conditions: 200 ppm active ingredient, pear seedlings, spray
Description: as §1, §2, §3
(§5) A plastic pot of 90 ml volume was filled with sandy soil, and seeds of pear (var: Chojuro) were sowed . therein. Cultivation was carried out in a greenhouse for 20 days. Onto the resulting seedlings, the test compound formulated in emulsifiable concentrate or wettable powder and diluted with water was sprayed at a rate of 10 ml per pot. Then, the seedlings were inoculated with a spore suspension of the drug-resistant or drug-sensitive strain of Venturia nashicola by spraying. The resulting plants were placed at 20°C under a condition of high humidity for 3 days and then at 20°C under irradiation with a fluorescent lamp for 20 days.

[3] = system: drug-resistant strain of Sphaerotheca fuliginea; conditions: for pest or weed control at 200 ppm: Podosphaera fuliginea, in Cucumis sativus, topical, 240 h, read-out: Prevention value when inoculated with drug-resistant strain; for Prevention value when inoculated with drug-resistant strain: 200 ppm active ingredient, cucumber seedlings, spray, 10 days after inoculation
Description: (§6) Protective activity test on powdery mildew of cucumber (Sphaerotheca fuliginea):-
(§7) A flower pot of 90 ml volume was filed with sandy soil, and seeds of cucumber (var: Sagami-hanjiro) were sowed therein. Cultivation was carried out in a greenhouse for 8 days. Onto the resulting seedlings having cotyledons, the test compound formulated in emulsifiable concentrate or wettable powder and diluted with water was sprayed at a rate of 10 ml per pot. Then, the seedlings were inoculated with a spore suspension of the drug-resistant or drug-sensitive strain of Sphaerotheca fuliginea by spraying and further cultivated in the greenhouse. Ten days thereafter, the infectious state of-the plants was observed.
as §1, §2, §3

[4] = system: drug-sensitive strain of Venturia nashicola; experiment: Preventive effect on scab of pear, drug-sensitive strain; conditions: 200 ppm active ingredient, pear seedlings, spray
Description: as §1, §2, §3, §5

[5] = system: drug-sensitive strain of Botrytis cinerea; experiment: Preventive effect on gray mold of cucumber, drug-sensitive strain; conditions: 200 ppm active ingredient, cucumber seedlings, mycelial disks, 3 days
Description: as §1, §2, §3
(§8) Preventive effect on gray mold of cucumber (Botrytis cinerea):-
(§9) Plastic pots of 90 ml volume were filled with sandy soil, and seeds of cucumber (var: Sagami-hanjiro) were sowed therein. Cultivation was carried out in a greenhouse for 8 days to obtain cucumber seedlings expanding cotyledons. Onto the resulting seedlings, the test compound formulated in emulsifiable concentrate or wettable powder and diluted with water was sprayed at a rate of 10 ml per pot. After air-drying, the seedlings were inoculated with mycelial disks (5 mm in diameter) of the drug-resistant or drug-sensitive strain of Botrytis cinerea by putting them on the leaf surfaces. After the plants were infected by incubating under high humidity at 20°C for 3 days, the rates of disease severity were observed.

[6] = system: drug-resistant strain of Botrytis cinerea; experiment: Preventive effect on gray mold of cucumber, drug-resistant strain; conditions: 200 ppm active ingredient, cucumber seedlings, mycelial disks, 3 days
Description: as §1, §2, §3, §8, §9

[7] = system: drug-sensitive strain of Sphaerotheca fuliginea; conditions: for pest or weed control at 200 ppm: Podosphaera fuliginea, in Cucumis sativus, topical, 240 h, read-out: Prevention value when inoculated with drug-sensitive strain; for Prevention value when inoculated with drug-sensitive strain: 200 ppm active ingredient, cucumber seedlings, spray, 10 days after inoculation
Description: as §6, §7, §1, §2, §3

[8] = system: drug-sensitive strain of Cercospora beticola; conditions: for pest or weed control at 200 ppm: Cercospora beticola, in Beta vulgaris, topical, 240 h, read-out: Prevention value when inoculated with drug-sensitive strain; for Prevention value when inoculated with drug-sensitive strain: 200 ppm active ingredient, sugarbeet seedlings, spray, 10 days
Description: as §1, §2, §3, §4

Pyricularia oryzae = conditions: in vivo

Structure (SMILES) | pest or weed control at 200 ppm [1] [%] | Prevention value when inoculated with drug-resistant strain [2] [%] | pest or weed control at 200 ppm [3] [%] | Prevention value when inoculated with drug-sensitive strain [4] [%] | Prevention value when inoculated with drug-sensitive strain [5] [%] | Prevention value when inoculated with drug-resistant strain [6] [%] | pest or weed control at 200 ppm [7] [%] | pest or weed control at 200 ppm [8] [%] | Prevention value when inoculated with drug-resistant strain [1] [%] | Prevention value when inoculated with drug-resistant strain [3] [%] | Prevention value when inoculated with drug-sensitive strain [7] [%] | Prevention value when inoculated with drug-sensitive strain [8] [%] | Prevention value (Pyricularia oryzae) [%]
CCCCNC(=O)n1c(NC(=O)OC)nc2ccccc21 [A, Methyl 1-(butyl-carbamoyl)benz-imidazol-2-yl-carbamate] | 0 | 0 | 0 | 100 | 100 | 0 | 100 | 100 |  |  |  |  | 
O=C(Nc1cccc(Cl)c1)OCC#CCCl [Barban, 4-chloro-2-butynyl N-(3-chlorophenyl)carbamate] | 34 |  | 25 |  |  |  | 0 | 0 |  |  |  |  | 
COC(=O)Nc1nc2ccccc2[nH]1 [C, Methyl benzimidazol-2-ylcarbamate] | 0 |  | 0 |  |  |  | 100 | 100 |  |  |  |  | 
O=C(Nc1cccc(Cl)c1)OCCCl [CEPC] |  |  |  |  |  |  |  |  | 0 | 0 | 0 | 0 | 
C#CC(C)OC(=O)Nc1cccc(Cl)c1 (stereo not drawn) [Chlorbufam, 1-methyl-2-propynyl N-(3-chlorophenyl)carbamate] | 0 |  | 0 |  |  |  | 100 | 100 |  |  |  |  | 
CC(C)OC(=O)Nc1cccc(Cl)c1 [Chlorpropham, isopropyl N-(3-chlorophenyl)carbamate] | 0 |  | 0 |  |  |  | 0 | 0 |  |  |  |  | 
CCOc1ccc(NC(=O)OC(C)C)cc1CC [Compound No. 50, isopropyl N-(3-ethyl-4-ethoxyphenyl)carbamate] | 100 | 98 | 100 | 0 | 0 | 100 | 0 | 0 |  |  |  |  | 
CCOc1ccc(N(C(=O)OC(C)C)C(=O)c2ccccc2)cc1COC [Compound No. 134, isopropyl N-benzoyl-N-(3-methoxymethyl-4-ethoxyphenyl)carbamate] |  |  |  |  | 0 | 100 |  |  |  |  |  |  | 
COC(=O)NC(=S)Nc1ccccc1NC(=S)NC(=O)OC [E, 1,2-Bis(3-methoxy-carbonyl-2-thio-ureido)benzene] | 0 | 0 | 0 | 100 | 100 | 0 | 100 | 100 |  |  |  |  | 
CCOP(=O)(Sc1ccccc1)Sc1ccccc1 [Edifenphos] |  |  |  |  |  |  |  |  |  |  |  |  | 97
CC(C)OC(=O)Nc1ccccc1 [Propham, isopropyl N-phenylcarbamate] | 0 |  | 0 |  |  |  | 0 | 0 |  |  |  |  | 
COC(=O)Nc1ccc(Cl)c(Cl)c1 [Swep] |  |  |  |  |  |  |  |  | 0 | 0 | 0 | 0 | 
CCOc1ccc(NC(=O)OC(C)C)cc1COC [compound 77, isopropyl N-(3-methoxymethyl-4-ethoxyphenyl)carbamate] | 100 | 100 | 100 | 0 | 0 | 100 | 0 | 0 |  |  |  |  | 
